Results on two molecules are retold here after article PMC10146281, “Pharmacokinetic and Pharmacodynamic Characteristics of Pelubiprofen Tromethamine vs. Pelubiprofen in Healthy Subjects” (Pharmaceutics, 2023).

Molecules are shown by their SMILES.

Data set [1] is described as follows: Study I (DW1809-102): pharmacokinetic analysis of plasma pelubiprofen (LC-MS/MS) after single oral dose. Conditions: for Tmax: N = 35, median (minimum–maximum). The method, then: In this study, the two independent clinical trials (Study I and II) were conducted using an identical randomized, open-label, oral, single-dose, fasted, two-sequence, four-period, crossover design. Due to the known pharmacokinetic characteristics of pelubiprofen with its large intra-subject variability, the replicated design was chosen to calculate the true intra-coefficient of variation in both studies. Study I tested 25 mg of pelubiprofen tromethamine (36.73 mg of pelubiprofen tromethamine salt; 25 mg of pelubiprofen, Daewon Pharmaceutical Co., Ltd., Seoul, Republic of Korea) against 30 mg of pelubiprofen (30.0 mg of pelubiprofen, Daewon Pharmaceutical Co., Ltd., Seoul, Republic of Korea) as the reference. Study II tested 30 mg of pelubiprofen tromethamine (44.07 mg of pelubiprofen tromethamine salt; 30 mg of pelubiprofen, Daewon Pharmaceutical Co., Ltd., Seoul, Republic of Korea) against 30 mg of pelubiprofen (30.0 mg of pelubiprofen, Daewon Pharmaceutical Co., Ltd., Seoul, Republic of Korea) as the reference. The target number of subjects in both Study I and II was set to N = 36 (N = 18 for each sequence group) (Figure 1, Table 1).
The subject screening in both Study I and Study II was performed in the four weeks ([…]) prior to the first administration (Day 1). […] In addition, the screened subjects fasted for at least 10 h, excluding drinking water, from approximately 10 p.m. until administration of the investigational drug. The randomization in both Study I and II led the subjects to receive oral administration of a single test or reference tablet with approximately 150 mL of water at each time point from approximately 8 a.m. at approximately 2 min intervals according to their numbers. The subjects in both Study I and II were prohibited from drinking water for an hour before and after the administration, except during drug administration. The post-administration blood sampling and tests were performed as scheduled. All subjects were provided with identical meals approximately 4 h after blood sampling. The subjects in both Study I and II received the blood sampling and tests for the pharmacokinetic (PK) evaluation approximately 8 h after administration. Then, they were discharged following the completion of the first period of the study.
To analyze the PK characteristics in both Study I and II, approximately 5 mL of blood was sampled before administration (0 h) and at the following time points after administration; 0.083 h (5 min), 0.167 h (10 min), 0.33 h (20 min), and 0.5, 0.75, 1, 1.5, 2, 2.5, 3, 3.5, 4, 6, and 8 h. Therefore, for each subject, the blood sampling was performed 15 times in each period, resulting in a total of 60 times. All four periods proceeded on the same schedule as the first period in both Study I and II. The wash-out period between each consecutive period was set to a minimum of four days. The subjects in both Study I and II, after completing all four periods, chose a day from Day 5 to Day 7 of the final administration in the four period for visiting the center to undergo post study visit.
The validation of the quantitative analysis of plasma pelubiprofen in this study was performed in accordance with the following guidelines: the Validation Protocol for Pelubiprofen Quantification, the domestic Standard Operating Procedure (SOP) for Bioanalyses, the Guideline of Bioanalytical Method Validation (MFDS, December 2013), and Bioanalytical Method Validation Guidance for Industry (USA FDA, 2018). The plasma pelubiprofen was pretreated using protein precipitation in a dark room at room temperature (15–25 °C) and under shielded light for the subsequent liquid chromatograph tandem mass spectrometry (LC-MS/MS) analysis. The tested items in the validation included the intra-batch and inter-batch accuracy, precision, selectivity, linearity, and stability.

Data set [2] in a line: Study I safety and tolerability evaluation (adverse events). To be noted: for adverse events: Study I, 36 subjects evaluated, all mild. The class given is in vivo, human. The method, then: In both Study I and II, the safety evaluation was performed on subjects administered with the investigational drug at least once. Any clinically significant findings in the interview, physical examination, vital signs, 12-lead electrocardiogram (ECG), the clinical laboratory test, etc., during the study period were collected as adverse events, which were subsequently evaluated for the incidence of serious adverse events, severity, causal relationship, etc. All relevant data were collected through monitoring by the investigator and voluntary reporting by the subjects. To collect additional data, interview and physical examination were performed where necessary. The investigator carried out the follow-up monitoring of the subjects with adverse events until the symptoms subsided and abnormal test values returned to a healthy baseline or until a satisfactory explanation for the observed change could be provided.

Where [3] appears, read: Study I, healthy subjects, single oral 25 mg pelubiprofen tromethamine, fasted, N = 35, mean ± SD.

`CC(C(=O)O)c1ccc(/C=C2\CCCCC2=O)cc1` (stereo not shown) [Pelubiprofen Tromethamine, pelubiprofen tromethamine]: in data set [1] (Study I, 25 mg pelubiprofen tromethamine dose group), the “time after oral administration at which plasma concentration of pelubiprofen returned to baseline” value was “approximately 4 h”. Besides, the “bioequivalence evaluation of Cmax and AUC0-t vs. 30 mg pelubiprofen” value in data set [1] (Study I, 25 mg pelubiprofen tromethamine, criteria 90% CI log 0.70–log 1.43 (Cmax), log 0.8–log 1.25 (AUC0-t)) is reported as “satisfied the bioequivalence study criteria”. Moreover, in data set [1] (setting [3]), the AUC0-inf is 372.12 ± 92.16 ng·h/mL, the AUC0-t was 370.76 ± 91.86 ng·h/mL, the CL/F was 71.78 ± 19.79 L/h and the Cmax came out at 645.80 ± 237.73 ng/mL. Besides, in data set [1] (setting [3]), the Vd/F came to 87.43 ± 40.63 L and the t1/2 was 52.2 ± 23.4 min. For the same molecule, the Tmax in data set [1] (Study I, healthy subjects, single oral 25 mg pelubiprofen tromethamine, fasted) is 0.33 (0.17–1.50) h. Besides, in data set [1] (Study I, healthy subjects, single oral 25 mg pelubiprofen tromethamine, fasted, listed as pelubiprofen tromethamine), the Tmax entry is “approximately 0.33 h”. Moreover, in data set [2] (25 mg pelubiprofen tromethamine compared to 30 mg pelubiprofen, healthy subjects, single oral dose), the tolerability and safety result is “outstanding tolerability and safety”. In addition, the adverse events result in data set [2] (treatment of the test (25 mg pelubiprofen tromethamine)) is recorded as “one case of adverse events”.
Regarding `CC(C(=O)O)c1ccc(/C=C2\CCCCC2=O)cc1` (stereo not shown) [Pelubiprofen, 2-[4-(oxocyclohexylidenemethyl)-phenyl] propionic acid], the CL/F in data set [1] (Study I, healthy subjects, single oral 30 mg pelubiprofen (reference), fasted, N = 35, mean ± SD) was 92.12 ± 28.68 L/h. The Tmax in data set [1] (Study I, healthy subjects, single oral 30 mg pelubiprofen (reference), fasted) is 0.33 (0.17–3.50) h. Moreover, in data set [1] (Study I, reference 30 mg pelubiprofen, four-period repeated crossover), the “highest within-subject variability for Cmax” value is “approximately 58%”. In addition, in data set [1] (human, plasma, po, 30 mg), the AUC0-inf stood at 355 ± 103 ng·h/mL, the AUC0-t came to 352 ± 103 ng·h/mL, the peak level (Cmax) was 619 ± 368 ng/mL and the Vd/F was 125 ± 58.8 L. Further, the half-life in data set [1] (human, plasma, po, 30 mg) is 59.4 ± 32.4 min. The Tmax in data set [1] (human, plasma, po, 30 mg, Tmax, Study I, healthy subjects, single oral 30 mg pelubiprofen (reference), fasted) was around 19.8 min. Further, the adverse events result in data set [2] (treatment of reference (30 mg pelubiprofen)) is recorded as “three cases of adverse events”.
